Measurements reported in the supplement of paper PMC4858399.
Where a name gives a salt, the structure may show the parent alone.

Assays:
Conditions in all cases: exposure time 48 h
[1] = tested on: Caenorhabditis elegans N2; assay: lowest effective concentration for larval growth inhibition (size below effect threshold); higher = less potent
Outline: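 C. elegans N2 L1 larvae (50 per 96-well) were grown 48 h at 20°C in K-medium with killed bacteria, 1% DMSO and 0.5, 1, 5, 10, 50, 100 or 200 µM chemical. The Biosort measured per-worm extinction as size, and these were log-transformed into well means. The lowest effective concentration is the first dose where the plate-adjusted mean size drops under the 5.665 threshold and stays under it at higher doses.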

[2] = tested on: Caenorhabditis elegans N2; assay: AC50 for larval growth inhibition (Hill fit); higher = less potent
Outline: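 Synchronised C. elegans N2 L1 larvae, 50 per well in 96-well plates, were grown at 20°C for 48 h in K-medium with killed OP50, 1% DMSO and 0.5–200 µM chemical. Worm size was read on a COPAS Biosort as extinction, log-transformed and averaged per well, and only wells holding at least 10 worms were kept. AC50 was obtained by a constrained Hill fit using weighted genetic-algorithm regression, with out-of-range values censored.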

[3] = tested on: Caenorhabditis elegans N2; assay: mean nematode size ln(EXT) after 48 h, plate-adjusted (DMSO control set to 6) (ln(EXT), control-adjusted); higher = larger nematodes / less growth inhibition
Outline: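 In K-medium with killed OP50, 1% DMSO and 0.5–200 µM chemical, synchronised N2 L1 larvae of C. elegans (50 per well) grew for 48 h at 20°C. Extinction was read for every worm on the Biosort, with debris removed by a growth model. Natural-log values averaged per well gave mean size, which was corrected per plate by subtracting the vehicle control mean and adding 6.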

SMILES	lowest effective concentration [1] [µM]	AC50 for larval growth inhibition [2] [µM]	mean nematode size ln(EXT) (ln) ([3]; 0.5 µM)	mean nematode size ln(EXT) (ln) ([3]; 1 µM)	mean nematode size ln(EXT) (ln) ([3]; 5 µM)	mean nematode size ln(EXT) (ln) ([3]; 10 µM)	mean nematode size ln(EXT) (ln) ([3]; 50 µM)	mean nematode size ln(EXT) (ln) ([3]; 100 µM)	mean nematode size ln(EXT) (ln) ([3]; 200 µM)
CO[C@H]1/C=C/O[C@@]2(C)Oc3c(C)c(O)c4c(O)c(c(/C=N/N5CCN(C)CC5)c(O)c4c3C2=O)NC(=O)/C(C)=C\C=C\[C@H](C)[C@H](O)[C@@H](C)[C@@H](O)[C@@H](C)[C@H](OC(C)=O)[C@@H]1C [Rifampicin]	200	> 200	5.96	5.92	5.94	5.98	5.84	5.84	5.56
CC(C)(OOC(C)(C)c1ccccc1)c1ccccc1 [Dicumyl peroxide’-(Dioxydipropane-2,2-diyl)dibenzene)]	50	> 200	5.83	5.8	5.83	5.82	5.62	5.38	5.45
CC(C)(C)OOC(C)(C)C [Di-tert-butyl peroxide]	200	> 200	5.88	5.88	5.96	5.83	5.59	5.79	5.31
CCOP(=S)(OCC)SCCSCC [Disulfoton]	200	> 200	6.1	6.13	5.9	6.03	5.93	5.72	5.04
CCO/N=C(\CC)C1=C(O)CC(c2c(C)cc(C)cc2C)CC1=O (centres undefined) [Tralkoxydim]	200	109	5.85	5.93	5.9	6.14	6.08	5.93	5.48
CCCOc1nn(C(=O)NS(=O)(=O)c2ccccc2C(=O)OC)c(=O)n1C [Propoxycarbazone-sodium]	200	> 200	5.79	5.97	6.22	6.16	5.99	5.96	5.38
COC(=O)c1c(C(F)F)nc(C(F)(F)F)c(C2=NCCS2)c1CC(C)C [Thiazopyr]	50	73.2	6.05	5.89	6	5.98	4.8	4.4	3.61
CCCCSP(=O)(SCCCC)SCCCC [Tribufos]	5	5.32	5.81	5.73	5.58	3.53	3.25	3.33	4.2
Cc1ccc(-c2c(Cl)nc(C#N)n2S(=O)(=O)N(C)C)cc1 [Cyazofamid]	100	60.5	5.91	5.91	5.88	6.02	5.84	5.29	4.91
CC1(C)C(C=C(Cl)Cl)C1C(=O)OC(C#N)c1cccc(Oc2ccccc2)c1 (centres undefined) [Cypermethrin]	200	> 200	6.09	6.11	6.12	6.03	5.88	5.71	5.17
O=C(O)C(F)(F)C(F)(F)C(F)(F)C(F)(F)C(F)(F)C(F)(F)F [Perfluoroheptanoic acid]	100	> 200	5.87	5.85	5.88	5.83	5.74	5.42	5.57
Cc1cc(SC2=C(O)C[C@@](CCc3ccc(N)cc3)(C(C)C)OC2=O)c(C(C)(C)C)cc1CO	200	186	5.92	6.15	6.21	6.22	6.19	6.07	5.64
CC(C)N1C(=O)N(c2ccccc2)CS/C1=N\C(C)(C)C [Buprofezin]	200	181	5.88	5.75	5.68	5.8	5.93	6.04	3.51
CCOC(=O)C(O)(c1ccc(Cl)cc1)c1ccc(Cl)cc1 [Chlorobenzilate]	10	39.4	6.05	5.97	5.87	5.64	4.21	4.08	3.11
CCOc1ccc2c(c1)C(C)=CC(C)(C)N2 [Ethoxyquin]	100	> 200	5.78	5.74	5.77	5.78	5.71	5.61	5.17
CC(C)(C)c1cc(/C=C2\SC(=N)NC2=O)cc(C(C)(C)C)c1O [Darbufelone mesylate]	≤ 0.5	31.2	5.59	5.62	5.03	5.48	4.17	4.18	3.87
CCCCCCc1ccc(O)cc1O [4-Hexylresorcinol]	50	181	6	5.89	5.83	5.84	5.6	5.03	4.47
N#Cc1cccnc1 [3-Pyridinecarbonitrile]	5	18.2	5.73	5.78	5.61	5.65	5.65	5.65	5.54

SMILES	lowest effective concentration [1] [µM]	AC50 for larval growth inhibition [2] [µM]	mean nematode size ln(EXT) (ln) ([3]; 0.5 µM)	mean nematode size ln(EXT) (ln) ([3]; 1 µM)	mean nematode size ln(EXT) (ln) ([3]; 5 µM)	mean nematode size ln(EXT) (ln) ([3]; 10 µM)	mean nematode size ln(EXT) (ln) ([3]; 50 µM)	mean nematode size ln(EXT) (ln) ([3]; 100 µM)	mean nematode size ln(EXT) (ln) ([3]; 200 µM)
CCOC(=O)COc1ccc2c(c1)CC(NCC(O)c1cccc(Cl)c1)CC2 (centres undefined)	200	> 200	5.79	5.81	5.87	5.81	5.76	5.75	5.5
CCc1ccc(C(=O)NN(C(=O)c2cc(C)cc(C)c2)C(C)(C)C)cc1 [Tebufenozide]	200	> 200	6.1	6.49	6.28	6.07	5.96	6.06	5.38
Cc1ccc(Cl)cc1 [4-Chlorotoluene]	100	> 200	5.8	5.74	5.72	5.77	5.8	5.63	5.37
CCOP(=S)(OCC)Oc1ccc2c(C)c(Cl)c(=O)oc2c1 [Coumaphos]	≤ 0.5	3.33	5.36	5.23	4.39	4.44	3.95	3.82	3.58
O=C1c2ccccc2C(=O)N1SC(Cl)(Cl)Cl [Folpet]	50	> 200	5.89	5.98	5.57	5.84	5.53	5.55	5.09
ClC1(Cl)C2(Cl)C3(Cl)C4(Cl)C(Cl)(Cl)C5(Cl)C3(Cl)C1(Cl)C5(Cl)C24Cl (centres undefined) [Mirex]	50	> 200	5.34	5.5	5.57	6.06	5.56	5.51	5.59
CO/C=C(/C(=O)OC)c1ccccc1Oc1cc(Oc2ccccc2C#N)ncn1 [Azoxystrobin]	200	> 200	5.84	5.87	5.93	5.9	5.8	5.85	5.5
COP(=S)(OC)SCn1nnc2ccccc2c1=O [Azinphos-methyl]	50	170	6.09	6.12	6.04	5.95	5.61	5.49	3.9
CC(C)(C)CC(C)(C)c1ccc(O)c(-n2nc3ccccc3n2)c1 [Octrizole]	≤ 0.5	> 200	5.46	5.58	5.57	5.58	5.58	5.55	5.44
CCOc1cccc(-n2cc(C(=O)N3CCN(c4cc(C(=O)O)c5ccccc5c4)CC3)nc2-c2ccc(C)cc2)c1	50	57.9	5.89	5.86	5.82	5.84	4.84	4.42	3.94
CC(C)(C)CC(C)(C)c1ccc(O)cc1 [4-(1,1,3,3-Tetramethylbutyl)phenol]	50	101	6.09	6.01	6.04	5.97	5.53	4.62	3.54
CCN(CC)N=O [N-Nitrosodiethylamine]	200	> 200	5.96	5.9	5.89	5.87	5.77	5.75	5.66
CCCCOC(=O)CCCCC(=O)OCCCC [Dibutyl hexanedioate]	50	58.5	5.86	5.83	5.8	5.76	5.27	3.38	3.38
[N-]=[N+]=[N-] [Sodium azide]	50	> 200	5.79	5.92	5.83	5.76	5.63	5.45	5.49
C=C(C)CN(CC)c1c([N+](=O)[O-])cc(C(F)(F)F)cc1[N+](=O)[O-] [Ethalfluralin]	200	141	5.89	6.05	5.94	5.8	6.1	5.98	4.85
CCC(=O)Nc1ccc(Cl)c(Cl)c1 [Propanil]	200	> 200	5.8	5.75	5.7	5.93	6	5.96	5.04
CC1=C(/C=C/C(C)=C/C=C/C(C)=C/C(=O)O)C(C)(C)CCC1 [Retinoic acid]	10	16.6	5.96	5.78	5.8	5.58	4.47	4.33	4.41
COC(=O)Nc1nc2ccccc2[nH]1 [methyl 1H-benzimidazol-2-ylcarbamate]	5	6.43	5.81	5.7	5.32	5.32	5.06	4.58	4.89
